Data published in patent publication US20260286316A1, “METHOD OF PRODUCTION OF MODIFIED PHAGE AND METHOD OF TREATMENT USING SAME” (priority 2022, published 2026).
Converted amounts (≈) assume the structure as drawn.

Columns and labels:
[1] = tested on: phage non-sensitive S. aureus strains (C43, C330, C285 and C319); test: Phage and clindamycin combination treatment (OD600); type: cell-based, Staphylococcus aureus; conditions: ½ MIC clindamycin only or phage only (MOI=1), 24 hours
Text: FIG. 6 provides graphical results showing that the combination of S. aureus phage and ½ MIC clindamycin kills non-sensitive S. aureus strains: (A) S. aureus C43 treated with APTC-SA-2 and ½ MIC clindamycin; (B) S. aureus C330 treated with APTC-SA-2 and ½ MIC clindamycin; (C) S. aureus ATCC25923 treated with APTC-SA-2 and ½ MIC clindamycin; (D) S. aureus C285 treated with APTC-SA-12 and ½ MIC clindamycin; (E) S. aureus C319 treated with APTC-SA-12 and ½ MIC clindamycin; and (F) S. aureus ATCC25923 treated with APTC-SA-12 and ½ MIC clindamycin. Significance was determined compared to untreated control. Data expressed as mean±SEM for three independent experiments. ****, p<0.0001; ns, no significant. C=clindamycin;
A phage and clindamycin synergy assay was performed using 96 well plates. In brief, selected S. aureus strains (phage non-sensitive) were grown on 1.5% TSA at 37° C. overnight. A single colony was transferred to TSB to generate a culture with a starting concentration of 5×10^5 CFU/ml. Phages were added to the bacteria culture at a MOI of 1 according to phage titers. Clindamycin was added to the cultures at ½ MIC (according to the MIC assay result). Optical density (Gorski A et al., Antibiotics (Basel) 9 (11), 2020) readings at 600 nm were recorded after 24 hours.

S. aureus CI11 = test: Clindamycin MIC, broth microdilution; type: cell-based; conditions: Staphylococcus aureus
Procedure: (§1) The minimum inhibitory concentration (MIC) of amoxicillin, vancomycin, erythromycin, clindamycin and azithromycin against the S. aureus strains was assessed using the broth microdilution technique as previously described (Wiegand I et al., Nature protocols 3 (2): 163-175, 2008) and breakpoints defined according to CSLI guidelines. Clinical strains resistant to at least one antibiotic in three or more antibiotic categories were defined as multidrug resistant (MDR).

S. aureus ATCC51650 = test: Clindamycin MIC, broth microdilution; type: cell-based; conditions: Staphylococcus aureus
Procedure: as §1

S. aureus CI3 = test: Rat rhinosinusitis model, efficacy arm (sinus mucosa CFU, biofilm biomass, histopathology); type: in vivo, Sprague Dawley rats; conditions: Sa87, ½ MIC clindamycin or ½ MIC azithromycin only
Text: Rat nasal tissues were fixed in 10% neutral buffered formalin. Tissue samples were then decalcified using 9.5% nitric acid in 1% ethylenediaminetetracetic acid (EDTA), processed to paraffin wax, and 6 μm sections cut and stained with H&E. The samples were examined by a veterinary pathologist blinded to the treatments given.
An established murine rhinosinusitis model was used with modifications (see YU C-j et al., Chinese Journal of Otorhinolaryngology-Skull Base Surgery 6, 2011; Zhang F et al., Am J Rhinol Allergy 27 (5): 361-366, 2013; and Jin M et al., Ear Arch Oto-Rhino-L 268 (6): 857-861, 2011). […] The sponges were placed at approximately 15 mm from the anterior nostril, located in the ostiomeatal complex. The rats were monitored for a nine-day period to allow for mucosal biofilms to form, and, on the tenth day, the sponges were removed. A two-day recovery was given to the rat before treatments begun. […] Treatments were administered intranasally twice a day for 14 days. Rats were monitored for weight and respiratory alterations (respiration rate; nasal discharge, hyperaemia or pruritus; and sneezing) during treatment, and, 14 days post-treatment initiation, the rats were humanely sacrificed. Their sinus mucosa was harvested for CFU counting, biofilm quantification, histopathology, and phage enumeration. […]
The quantification of biofilm biomass on sinus mucosa was determined using an established protocol (Singhal D et al., editors. Quantitative analysis of in vivo mucosal bacterial biofilms. International Forum of Allergy & Rhinology; 2012: Wiley Online Library (27). Briefly, the frontal sinus mucosa was harvested and placed into Dulbecco's Modified Eagle's Medium (Life Technologies, Carlsbad, CA, United States of America) on ice. One piece of mucosa from each frontal sinus was stained with a LIVE/DEAD® BacLight Bacterial Viability Kit (Life Technologies Australia). The stained mucosa was then examined at 20× magnification using a confocal laser scanning microscope (Zeiss LSM700, Carl Zeiss AG, Oberkochen, Germany). […]

[2] = tested on: S. aureus ATCC51650 and CI11 biofilms; test: Biofilm viability, AlamarBlue assay; type: cell-based, Staphylococcus aureus
Procedure: Briefly, a 1.0 McFarland unit S. aureus culture suspended in 1:15 dilution in TSB was added to 96-well microtiter plates (Costar; Corning Incorporated, Corning, NY, United States of America). Plates were incubated for 48 hours at 37° C. on a rotating platform at 70 rpm (3D Gyratory Mixer; Ratek Instruments, Boronia, VIC, Australia) to allow biofilm formation followed by washing with phosphate-buffered saline. […] Wells were treated for 24 hours at 37° C. with gentle shaking. The AlamarBlue viability assay (Thermo Fisher Scientific, Waltham, MA, United States of America) was used as previously described (Richter K et al., editors. Mind “De GaPP”: in vitro efficacy of deferiprone and gallium-protoporphyrin against Staphylococcus aureus biofilms. International Forum of Allergy & Rhinology; 2016: Wiley Online Library to determine the anti-biofilm activity of the phage. Fluorescence was measured in a microplate reader (FLUOstar OPTIMA, BMG LABTECH, Offenburg, Germany) and the percent reduction of biofilm after treatment determined relative to untreated controls.

CCC[C@@H]1C[C@@H](C(=O)N[C@@H]([C@H]2O[C@H](SC)[C@H](O)[C@@H](O)[C@H]2O)[C@H](C)Cl)N(C)C1 [clindamycin]
growth of S. aureus bacteria vs control, single agent [1]: similar
MIC (S. aureus CI11): 0.2 µg/mL (≈ 0.471 µM)
MIC (S. aureus ATCC51650): 0.2 µg/mL (≈ 0.471 µM)
histopathology of the maxilloturbinates, single agent (S. aureus CI3): evidence of cilial denudation and surface epithelial erosion
reduction of clindamycin concentration required to significantly reduce biofilm viability by combination with phage [2]: five
minimal effective concentration ([2]; Staphylococcus aureus, ATCC51650, 24 hours treatment, lower concentrations no significant effect, read-out: clindamycin alone: concentration significantly reducing viability of preformed biofilms): ≥ 0.5 µg/mL
